According to patent US11576978B2, “Hemoglobin-based therapeutic agents” (priority 2019, dated 2023):

Assays:
[1] = Biodistribution of AF750-labeled agents in normal mice; assay type: in vivo, normal BALB/c mice; conditions: 72 h post-injection, 40 mg/kg intravenously
Protocol: Biodistribution of Hb-SMCC-DM1 (Prepared using one-step method in Example 5, MDR of 3.0) in normal mice is performed by using normal mice model. Briefly, normal BALB/c mice are injected intravenously with 40 mg/kg of Hb-AF750 and Hb-SMCC-DM1-AF750, respectively, and imaged serially from 2 hour to 72 hour post-injection. The mice are sacrificed at 72 hour of drug administration to collect various kinds of organ for imaging.

[2] = system: cancer cell lines; assay: MTT cytotoxicity assay on cancer cell lines; assay type: cell-based; conditions: various cancer cells
Protocol: Cancer cells are cultured in medium (Invitrogen) with 10% Fetal bovine serum (FBS), 100 U/mL penicillin and 100 μg/mL streptomycin at 37° C. For normoxic condition, cells are incubated with ambient O2 concentration and 5% CO2, for hypoxic condition, cells are incubated with 0.1-0.5% O2 (Quorum FC-7 automatic CO2/O2/N2 gas mixer) and 5% CO2.
Cell viability is measured using a 3-(4,5-dimethylthiazol-2-yl)-2,5-diphenyltetrazolium bromide (MTT) proliferation assay. Briefly, cancer cell lines (e.g. HCT116, 4T1, and SMMC7721) are seeded in a 96-well flat-bottomed microplate and cultured in 100 μL growth medium at 37° C. and 5% CO2 for 24 h. Cell culture medium in each well is then replaced by 100 μL cell growth medium, containing either no drug, DM1 alone or modified hemoglobin-based cytotoxic agents at series concentrations. Incubation of drugs for 24 h, cell culture medium containing drugs is replaced by 100 μL MTT labeling reagent (1 mg/mL in PBS solution) in each well and incubation for further 4 h at 37° C. The medium is removed gently, and 50 μL DMSO is then added to each well as solubilizing agent to dissolve the formazan crystals completely. The absorbance at the wavelength of 570 nm is measured by iMark Microplate Absorbance Spectrophotometer, and each data point represents the means±SD from triplicate wells.

[3] = Preliminary repeat-dose toxicity in normal mice; assay type: in vivo; conditions: weekly, four IV doses, BALB/c mice
Protocol: The toxicity of Hb-SMCC-DM1 with an (Prepared using one-step method in Example 5, MDR of 3.0) is evaluated in repeat-dose study in normal BALB/c mice. Briefly, mice (n=3, females/group) are administered with unconjugated-DM1 and Hb-SMCC-DM1 weekly for a total of four IV doses at PBS, 2.5 mg/kg of unconjugated-DM1, and 42, 84, 126, and 168 mg/kg of Hb-SMCC-DM1, respectively. Body weights are recorded at every 3 days.

Row | Compound | location of fluorescence signal (biodistribution) [1] | IC50 [2] [µM] | tolerated dose [3]
1 | hemoglobin | mainly in liver and kidney | > 10 | 
2 | COc1cc2cc(c1Cl)N(C)C(=O)C[C@H](OC(=O)[C@H](C)N(C)C(=O)CCS)[C@]1(C)O[C@H]1[C@H](C)[C@@H]1C[C@@](O)(NC(=O)O1)[C@H](OC)/C=C/C=C(\C)C2 [unconjugated-DM1, mertansine (DM1)] |  |  | up to 2.5 mg/kg
